Assay results as given in PMC5817008 (Analytical biochemistry, 2017).
Read-outs that look alike come from different tables or passages of the source.

Legend:
[1] = literature search; cited from earlier work
[2] = system: F. tularensis IspD (FtIspD); assay type: biochemical, Francisella tularensis
[3] = system: Francisella tularensis subsp. novicida Utah 112; assay: microbe, parasite or virus in culture; assay type: cell-based; conditions: for EC50: read-out: EC50, growth inhibition
Y. pestis IspC (YpIspC) = Y. pestis IspC (YpIspC) (Yersinia pestis, UniProt Q8ZH62); assay: biochemical; conditions: for % Residual Activity: 100 µM; for remaining activity at 100 µM: read-out: % Residual Activity
[4] = system: Yersinia pestis subsp. A1122; assay: microbe, parasite or virus in culture; assay type: cell-based
PI3K = conditions: competitive inhibitor; cited from earlier work
JNK = conditions: cited from earlier work
CYP34A = conditions: direct competitive inhibitor; cited from earlier work
E.coli IspD (EcIspD) = target: T1, E.coli IspD (EcIspD) (Escherichia coli, UniProt Q46893); assay: Secondary screen, cuvette-based assay with EcIspD; assay type: biochemical
T1 sequence (Q46893 1-236): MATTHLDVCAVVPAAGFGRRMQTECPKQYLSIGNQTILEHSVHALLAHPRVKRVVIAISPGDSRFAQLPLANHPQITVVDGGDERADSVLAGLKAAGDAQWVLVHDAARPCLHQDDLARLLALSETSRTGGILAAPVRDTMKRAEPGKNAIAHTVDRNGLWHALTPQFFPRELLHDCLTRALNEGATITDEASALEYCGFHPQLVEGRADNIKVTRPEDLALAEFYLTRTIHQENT

YpIspC [5] = target: T2, YpIspC (Yersinia pestis, UniProt Q8ZH62); assay type: biochemical
YpIspC [6] = target: T2, YpIspC; assay type: biochemical; remark: listed apart in the source
[7] = system: Yersinia pestis subsp. A1122; conditions: read-out: EC50, growth inhibition; cited from earlier work
[8] = system: Francisella tularensis subsp. novicida Utah 112; conditions: read-out: EC50, growth inhibition; cited from earlier work
FtIspD [9] = assay type: biochemical, Francisella tularensis
FtIspD [10] = assay type: biochemical, Francisella tularensis; remark: listed apart in the source
[11] = Yersinia pestis, SUBSP.A1122, read-out: EC50, growth inhibition

Chain of Y. pestis IspC (YpIspC) (Q8ZH62 whole entry, looked up): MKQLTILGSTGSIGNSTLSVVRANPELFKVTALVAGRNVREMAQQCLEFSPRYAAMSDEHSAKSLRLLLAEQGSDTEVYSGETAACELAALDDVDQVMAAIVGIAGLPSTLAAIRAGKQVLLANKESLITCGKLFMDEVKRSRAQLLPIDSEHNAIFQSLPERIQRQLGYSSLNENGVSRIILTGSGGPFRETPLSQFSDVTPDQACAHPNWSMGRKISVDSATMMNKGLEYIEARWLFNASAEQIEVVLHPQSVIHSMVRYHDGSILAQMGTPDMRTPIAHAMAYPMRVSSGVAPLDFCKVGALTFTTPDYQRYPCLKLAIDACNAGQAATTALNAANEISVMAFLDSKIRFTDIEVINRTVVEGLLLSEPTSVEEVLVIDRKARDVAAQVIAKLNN
T2 sequence (Q8ZH62 whole entry, looked up): as above

Compound: CC(=O)c1c(O)c(C)c(O)c(Cc2c(O)c3c(c(C(=O)C=Cc4ccccc4)c2O)OC(C)(C)C=C3)c1O [Rottlerin, 3′-[(8-Cinnamoyl-5,7-dihydroxy-2,2-dimethyl-2H-1-benzopyran-6-yl)methyl]-2′,4′,6′-trihydroxy-5′-methylacetophenone]
- forming aggregates in solution [1]: forming aggregates in solution
- residual FtIspD activity in the primary screen [2]: 52%
- antibacterial activity in the quaternary screen [3]: significantly inhibit bacterial growth

Compound: C[C@]12C=CC(=O)C=C1CC[C@@H]1C2=CC[C@]2(C)[C@@H](C(=O)CN3CCN(c4cc(N5CCCC5)nc(N5CCCC5)n4)CC3)CC[C@@H]12.O=C(O)/C=C\C(=O)O [U-74389G maleate]
- antibacterial activity in the quaternary screen [3]: failed to show significant antimicrobial activity

Compound: O=c1c(O[C@@H]2O[C@H](CO)[C@H](O)[C@H](O)[C@H]2O)c(-c2ccc(O)c(O)c2)oc2cc(O)cc(O)c12 [Quercetin 3-D-Galactoside]
- % Residual Activity (Y. pestis IspC (YpIspC)): 76.779%

Compound: COc1cc(/C=C(\C#N)C(=O)c2ccc(O)c(O)c2)cc(I)c1O [I-OMe-Tyrphostin AG 538]
- antibacterial activity in the quaternary screen [3]: failed to show significant antimicrobial activity

Compound: O.Oc1cc(O)c2c(c1)O[C@H](c1ccc(O)c(O)c1)[C@@H](O)C2 [Catechin]
- % Residual Activity (Y. pestis IspC (YpIspC)): 96.65%

Compound: O=c1c(O)c(-c2ccc(O)c(O)c2)oc2cc(O)cc(O)c12 [Quercetin]
- EC50 [4, 11]: < 50 µM
- EC50 ([4]; read-out: EC50, growth inhibition): 29 µM
- forming aggregates in solution [1]: forming aggregates in solution
- Kd (PI3K): 0.28 µM
- IC50 (JNK): 1 µM
- Ki (CYP34A): 15.4 µM
- FtIspD activity, % of the uninhibited control [2]: 4%
- residual growth [3]: less than 25%
- EC50 ([3]; Francisella tularensis): < 50 µM
- EC50 [3]: 36 µM
- remaining activity at 100 µM (Y. pestis IspC (YpIspC)): 4.83%
- inhibition at 100 µM (Y. pestis IspC (YpIspC); read-out: inhibition of the catalytic activity of YpIspC): > 95%

Compound: O=C1Nc2ccc(I)cc2C1=Cc1cc(Br)c(O)c(Br)c1 [GW5074, 3-(3,5-Dibromo-4-hydroxybenzylidine-5-iodo-1,3-dihydro-indol-2-one)]
- hit identification in the primary screen with FtIspD [2]: identified as inhibitors of FtIspD
- residual activity of EcIspD in the secondary screen (E.coli IspD (EcIspD); secondary screen, 100 μM): 47%
- antibacterial activity in the quaternary screen [3]: significantly inhibit bacterial growth

Compound: Cc1ccc(C(=O)Nc2ccc(S(=O)(=O)O)c3cc(S(=O)(=O)O)cc(S(=O)(=O)O)c23)cc1NC(=O)c1cccc(NC(=O)Nc2cccc(C(=O)Nc3cc(C(=O)Nc4ccc(S(=O)(=O)O)c5cc(S(=O)(=O)O)cc(S(=O)(=O)O)c45)ccc3C)c2)c1 [Suramin Hexasodium]
- aggregating / non-aggregating inhibitor (YpIspC [5]): non-aggregating
- attenuation of inhibition in the presence of detergent (YpIspC [6]): did not attenuate inhibition
- antibacterial activity in the quaternary screen [3]: failed to show significant antimicrobial activity

Compound: O=C(Nc1cccc(C(=O)Nc2ccc(S(=O)(=O)O)c3cc(S(=O)(=O)O)cc(S(=O)(=O)O)c23)c1)Nc1cccc(C(=O)Nc2ccc(S(=O)(=O)O)c3cc(S(=O)(=O)O)cc(S(=O)(=O)O)c23)c1 [NF023]
- antibacterial activity in the quaternary screen [3]: failed to show significant antimicrobial activity

Compound: C[n+]1cc2c3c(ccc2c2ccc4cc5c(cc4c21)OCO5)OCO3 [Sanguinarine chloride, 13-Methyl-[1, 3]benzodioxolo[5,6-c]-1,3-dioxolo[4,5-i] phenanthridinium chloride]
- aggregating / non-aggregating inhibitor (YpIspC [5]): aggregating inhibitor
- dependence of IC50 on enzyme concentration (YpIspC [5]): decreases with a decrease in YpIspC concentration
- antibacterial activity in the quaternary screen [3]: significantly inhibit bacterial growth

Compound: COc1ccc2c(c[n+](C)c3c4cc5c(cc4ccc23)OCO5)c1OC.[Cl-] [chelerythrine chloride, 1,2-Dimethoxy-N-methyl(1,3) benzodioxolo(5,6-c)phenanthridinium chloride]
- EC50 [4, 11]: > 100 µM
- antibacterial activity in the quaternary screen [3]: significantly inhibit bacterial growth
- hit identification in the primary screen with YpIspC (Y. pestis IspC (YpIspC)): identified as inhibitors of IspC

Compound: O=C(O)C1=CC(=C(c2ccc(O)c(C(=O)O)c2)c2ccc(O)c(C(=O)O)c2)C=CC1=O [Aurintricarboxylic acid]
- antibacterial activity in the quaternary screen [3]: failed to show significant antimicrobial activity

Compound: O=c1c(O[C@@H]2O[C@H](CO)[C@@H](O)[C@H](O)[C@H]2O)c(-c2ccc(O)c(O)c2)oc2cc(O)cc(O)c12 [Quercetin 3-β-D-glucoside]
- % Residual Activity (Y. pestis IspC (YpIspC)): 76.25%

Compound: CC(=O)N(O)CCCP(=O)(O)O [FR900098]
- EC50 [7]: 29 µM
- EC50 [8]: 23 µM

Compound: Cc1cc(N)c2ccccc2[n+]1CCCCCCCCCC[n+]1c(C)cc(N)c2ccccc21.O.[Cl-].[Cl-] [Dequalinium chloride, 1,1′-Decamethylenebis(4-aminoquinaldinium) dichloride hydrate]
- EC50 [4, 11]: > 100 µM
- forming aggregates in solution [1]: forming aggregates in solution
- antibacterial activity in the quaternary screen [3]: significantly inhibit bacterial growth
- hit identification in the primary screen with YpIspC (Y. pestis IspC (YpIspC)): identified as inhibitors of IspC

Compound: CCCc1c(-c2ccc(O)cc2)nn(-c2ccc(O)cc2)c1-c1ccc(O)cc1 [PPT, 1,3,5-tris(4-hydroxyphenyl)-4-propyl-1H-pyrazole]
- hit identification in the primary screen with FtIspD [2]: identified as inhibitors of FtIspD
- remaining activity at 100 µM (E.coli IspD (EcIspD); read-out: residual activity of EcIspD in the secondary screen): 55%
- antibacterial activity in the quaternary screen [3]: significantly inhibit bacterial growth

Compound: NC(Cc1cc(O)c(O)cc1O)C(=O)O (racemic) [6-hydroxy-DL-DOPA]
- mode of inhibition with respect to CTP (FtIspD [9]): competitive
- mode of inhibition with respect to MEP (FtIspD [9]): noncompetitive
- attenuation of inhibition in the presence of detergent (FtIspD [10]): did not attenuate inhibition
- antibacterial activity in the quaternary screen [3]: failed to show significant antimicrobial activity

Compound: C[C@@H]1O[C@@H](Oc2c(-c3ccc(O)c(O)c3)oc3cc(O)cc(O)c3c2=O)[C@H](O)[C@H](O)[C@H]1O [Quercitrin]
- remaining activity at 100 µM (Y. pestis IspC (YpIspC)): 78.2%
